According to US7977322B2 (Vertex Pharmaceuticals Incorporated, priority 2004, dated 2011):

Biological target: T1, ΔF508-CFTR (Homo sapiens, UniProt P13569, DEL508-508)
T1 construct: expressed in transfected cells
Assay: Membrane potential optical (FRET/VIPR) assay, identification of correction compounds
Type: cell-based
Conditions: Table 3, assay not given; for Emax: read-out: % Activity / % Efficacy (relative efficacy)
Summary of the method: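 NIH3T3 mouse fibroblasts stably expressing ΔF508-CFTR were exposed to compound for 16 h at 37° C in serum-free medium, then loaded with DiSBAC2(3)/CC2-DMPE. After addition of 10 μM forskolin plus 20 μM genistein in Cl⁻-free gluconate bath (pH 7.4), depolarization from Cl⁻ efflux was read by FRET (VIPR II).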

T1 sequence (P13569 with tags, fused parts or gaps DEL508-508): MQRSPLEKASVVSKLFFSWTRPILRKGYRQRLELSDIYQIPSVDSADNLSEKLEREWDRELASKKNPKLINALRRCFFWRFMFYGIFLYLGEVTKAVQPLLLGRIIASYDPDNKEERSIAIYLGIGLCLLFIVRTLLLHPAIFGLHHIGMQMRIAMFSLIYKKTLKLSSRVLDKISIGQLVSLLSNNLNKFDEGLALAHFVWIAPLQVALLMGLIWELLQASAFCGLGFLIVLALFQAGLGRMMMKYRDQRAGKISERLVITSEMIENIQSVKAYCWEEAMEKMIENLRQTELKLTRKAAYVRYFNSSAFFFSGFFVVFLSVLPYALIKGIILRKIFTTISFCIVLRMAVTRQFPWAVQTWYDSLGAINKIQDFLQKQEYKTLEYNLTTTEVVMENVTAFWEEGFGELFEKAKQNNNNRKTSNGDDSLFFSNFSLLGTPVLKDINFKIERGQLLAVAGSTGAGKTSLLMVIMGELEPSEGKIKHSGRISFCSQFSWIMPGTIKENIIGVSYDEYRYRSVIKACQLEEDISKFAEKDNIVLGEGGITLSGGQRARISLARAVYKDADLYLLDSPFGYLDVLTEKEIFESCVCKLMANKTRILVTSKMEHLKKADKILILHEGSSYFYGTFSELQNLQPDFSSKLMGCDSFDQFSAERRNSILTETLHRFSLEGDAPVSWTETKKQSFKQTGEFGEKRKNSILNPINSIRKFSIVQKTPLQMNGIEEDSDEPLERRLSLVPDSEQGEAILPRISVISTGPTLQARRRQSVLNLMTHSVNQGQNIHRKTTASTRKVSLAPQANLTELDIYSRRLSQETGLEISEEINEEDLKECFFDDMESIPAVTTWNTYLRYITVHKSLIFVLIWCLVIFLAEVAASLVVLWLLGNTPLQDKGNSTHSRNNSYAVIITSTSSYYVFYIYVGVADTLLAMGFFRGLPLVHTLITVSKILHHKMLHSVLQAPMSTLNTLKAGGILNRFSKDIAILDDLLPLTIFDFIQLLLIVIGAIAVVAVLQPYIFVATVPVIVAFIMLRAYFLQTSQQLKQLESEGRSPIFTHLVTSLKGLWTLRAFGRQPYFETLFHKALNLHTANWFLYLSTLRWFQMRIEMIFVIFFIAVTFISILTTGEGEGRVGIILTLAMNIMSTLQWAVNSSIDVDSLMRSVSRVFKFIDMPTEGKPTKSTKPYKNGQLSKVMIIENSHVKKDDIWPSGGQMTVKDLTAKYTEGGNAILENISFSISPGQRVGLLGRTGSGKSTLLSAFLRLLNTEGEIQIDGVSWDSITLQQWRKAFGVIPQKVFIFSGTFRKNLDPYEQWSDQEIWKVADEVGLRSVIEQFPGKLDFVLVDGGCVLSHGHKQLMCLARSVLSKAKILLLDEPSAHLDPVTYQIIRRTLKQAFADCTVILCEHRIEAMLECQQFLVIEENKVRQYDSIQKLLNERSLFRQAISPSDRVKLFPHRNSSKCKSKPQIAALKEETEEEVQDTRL

Row | Structure (SMILES) | EC50 [µM] | Emax [%]
1 | O=C(Nc1ncc(C(c2ccccc2C(F)(F)F)N2CC[C@@H](O)C2)s1)C1(c2ccc3c(c2)OCO3)CC1 (stereo partly shown) [Example 464] | < 10 | > 100
2 | O=C(Nc1ncc(C(c2ccccc2F)N2CCCC2)s1)C1(c2ccc3c(c2)OCO3)CC1 (stereo not shown) [Example 465] | < 10 | > 100
3 | Cc1ccccc1C(c1cnc(NC(=O)C2(c3ccc4c(c3)OCO4)CC2)s1)N1CC[C@@H](O)C1 (stereo partly shown) [Example 466] | 10 to 25 | > 100
4 | O=C(Nc1ncc(C(c2ccc(Cl)cc2Cl)N2CCCC2)s1)C1(c2ccc3c(c2)OCO3)CC1 (stereo not shown) [Example 467] | < 10 | > 100
5 | O=C(Nc1ncc(C(c2ccccc2C(F)(F)F)N2CCCC2)s1)C1(c2ccc3c(c2)OCO3)CC1 (stereo not shown) [Example 468] | < 10 | > 100
6 | Cc1ccccc1C(c1cnc(NC(=O)C2(c3ccc4c(c3)OCO4)CC2)s1)N1CCCC1 (stereo not shown) [Example 469] | < 10 | > 100
7 | O=C(Nc1ncc(C(c2ccc(Cl)cc2Cl)N2CC[C@@H](O)C2)s1)C1(c2ccc3c(c2)OCO3)CC1 (stereo partly shown) [Example 470] | < 10 | > 100
8 | O=C(Nc1ncc(C(c2cc(F)ccc2F)N2CCCC2)s1)C1(c2ccc3c(c2)OCO3)CC1 (stereo not shown) [Example 471] | < 10 | > 100
9 | O=C(Nc1ncc(C(c2ccccc2F)N2CC[C@@H](O)C2)s1)C1(c2ccc3c(c2)OCO3)CC1 (stereo partly shown) [Example 472] | < 10 | > 100
10 | CCOc1ccccc1C(c1cnc(NC(=O)C2(c3ccc4c(c3)OCO4)CC2)s1)N1CC[C@@H](O)C1 (stereo partly shown) [Example 473] | < 10 | > 100
11 | O=C(Nc1ncc(C(c2cc(F)ccc2F)N2CC[C@@H](O)C2)s1)C1(c2ccc3c(c2)OCO3)CC1 (stereo partly shown) [Example 474] | < 10 | > 100
12 | NC(c1cnc(NC(=O)C2(c3ccc4c(c3)OCO4)CC2)s1)c1ccccc1Cl (stereo not shown) [Example 475] | < 10 | 25 to 100
13 | CCOc1ccccc1C(NC(CO)CC(C)C)c1cnc(NC(=O)C2(c3ccc4c(c3)OCO4)CC2)s1 (stereo not shown) [Example 476] | – | > 100
14 | CCOc1ccccc1C(N[C@@H](CO)CC(C)C)c1cnc(NC(=O)C2(c3ccc4c(c3)OCO4)CC2)s1 (stereo partly shown) [Example 476] | < 10 | –
15 | Cc1ccccc1C(N[C@@H](CO)CC(C)C)c1cnc(NC(=O)C2(c3ccc4c(c3)OCO4)CC2)s1 (stereo partly shown) [Example 477] | < 10 | > 100
16 | CCOc1ccccc1C(NC(CO)C(C)C)c1cnc(NC(=O)C2(c3ccc4c(c3)OCO4)CC2)s1 (stereo not shown) [Example 478] | – | > 100
17 | CCOc1ccccc1C(N[C@@H](CO)C(C)C)c1cnc(NC(=O)C2(c3ccc4c(c3)OCO4)CC2)s1 (stereo partly shown) [Example 478] | < 10 | –
18 | Cc1ccccc1C(N[C@@H](CO)C(C)C)c1cnc(NC(=O)C2(c3ccc4c(c3)OCO4)CC2)s1 (stereo partly shown) [Example 479] | < 10 | > 100
19 | CC(C)C[C@H](CO)NC(c1cnc(NC(=O)C2(c3ccc4c(c3)OCO4)CC2)s1)c1cc(F)ccc1F (stereo partly shown) [Example 480] | < 10 | > 100

Row | Structure (SMILES) | EC50 [µM] | Emax [%]
20 | CC(C)[C@H](CO)NC(c1cnc(NC(=O)C2(c3ccc4c(c3)OCO4)CC2)s1)c1ccccc1C(F)(F)F (stereo partly shown) [Example 481] | < 10 | > 100
21 | CC(C)C[C@H](CO)NC(c1cnc(NC(=O)C2(c3ccc4c(c3)OCO4)CC2)s1)c1ccccc1F (stereo partly shown) [Example 482] | < 10 | > 100
22 | CC(C)[C@H](CO)NC(c1cnc(NC(=O)C2(c3ccc4c(c3)OCO4)CC2)s1)c1ccccc1F (stereo partly shown) [Example 483] | < 10 | > 100
23 | CC(C)[C@H](CO)NC(c1cnc(NC(=O)C2(c3ccc4c(c3)OCO4)CC2)s1)c1cc(F)ccc1F (stereo partly shown) [Example 484] | < 10 | > 100
24 | CCC[C@@H](CO)NC(c1cnc(NC(=O)C2(c3ccc4c(c3)OCO4)CC2)s1)c1ccccc1Cl (stereo partly shown) [Example 485] | < 10 | > 100
25 | CCC(CO)NC(c1cnc(NC(=O)C2(c3ccc4c(c3)OCO4)CC2)s1)c1ccccc1Cl (stereo not shown) [Example 486] | < 10 | > 100
26 | C[C@@H](O)CNC(c1cnc(NC(=O)C2(c3ccc4c(c3)OCO4)CC2)s1)c1ccccc1Cl (stereo partly shown) [Example 487] | < 10 | > 100
27 | CC(C)(C)[C@H](CO)NC(c1cnc(NC(=O)C2(c3ccc4c(c3)OCO4)CC2)s1)c1ccccc1Cl (stereo partly shown) [Example 488] | < 10 | > 100
28 | CCC[C@H](CO)NC(c1cnc(NC(=O)C2(c3ccc4c(c3)OCO4)CC2)s1)c1ccccc1Cl (stereo partly shown) [Example 489] | < 10 | > 100
29 | CC(C)(C)[C@@H](CO)NC(c1cnc(NC(=O)C2(c3ccc4c(c3)OCO4)CC2)s1)c1ccccc1Cl (stereo partly shown) [Example 490] | 10 to 25 | 25 to 100
30 | CCCC[C@@H](CO)NC(c1cnc(NC(=O)C2(c3ccc4c(c3)OCO4)CC2)s1)c1ccccc1Cl (stereo partly shown) [Example 491] | < 10 | > 100
31 | O=C(Nc1ncc(C(c2ccccc2Cl)N2CC[C@@H](O)C2)s1)C1(c2ccc3c(c2)OC(F)(F)O3)CC1 (stereo partly shown) [Example 492] | < 10 | > 100
32 | CC(C)[C@H](CO)NC(c1ccc2c(c1)OC(F)(F)O2)c1cnc(NC(=O)C2(c3ccc4c(c3)OCO4)CC2)s1 (stereo partly shown) [Example 493] | < 10 | > 100
33 | O=C(Nc1ncc(C(c2cccc3c2OC(F)(F)O3)N2CCCC2)s1)C1(c2ccc3c(c2)OCO3)CC1 (stereo not shown) [Example 494] | < 10 | 25 to 100
34 | CC(C)C[C@@H](CO)NC(c1cnc(NC(=O)C2(c3ccc4c(c3)OCO4)CC2)s1)c1ccccc1Cl (stereo partly shown) [Example 495] | < 10 | 25 to 100
35 | O=C(Nc1ncc(C(c2cccc3c2OC(F)(F)O3)N2CC[C@@H](O)C2)s1)C1(c2ccc3c(c2)OCO3)CC1 (stereo partly shown) [Example 496] | < 10 | 25 to 100
36 | CCCC[C@H](CO)NC(c1cnc(NC(=O)C2(c3ccc4c(c3)OCO4)CC2)s1)c1ccccc1Cl (stereo partly shown) [Example 497] | < 10 | > 100
37 | CC(C)CC(CO)NC(c1cnc(NC(=O)C2(c3ccc4c(c3)OCO4)CC2)s1)c1cccc2c1OC(F)(F)O2 (stereo not shown) [Example 498] | – | > 100
38 | CC(C)C[C@H](CO)NC(c1cnc(NC(=O)C2(c3ccc4c(c3)OCO4)CC2)s1)c1cccc2c1OC(F)(F)O2 (stereo partly shown) [Example 498] | < 10 | –
